Literature values, collected in patent US6517814B2, “Macrocyclic chelants useful for metallopharmaceuticals” (Bristol-Myers Squibb Pharma Company, priority 2001, dated 2003).
Read-outs that look alike come from different tables or passages of the source.

Row | half-life (in 0.1 M HCl) [h] | half-life (decomposes rapidly under acidic conditions) [h] | Structure (SMILES)
1 | 60.2 |  | O=C([O-])CN1CCN(CC(=O)[O-])CCN(CC(=O)[O-])CCN(CC(=O)[O-])CC1.[Gd+3] [[Gd(DOTA]^−]
2 |  | ~0.0167 | O=C([O-])CN(CCN(CC(=O)[O-])CC(=O)[O-])CCN(CC(=O)[O-])CC(=O)[O-].[Gd+3] [[Gd(DTPA]^2−]
